{"source": "paper PMC4710912", "about": "“High Proteolytic Resistance of Spider-Derived Inhibitor Cystine Knots” (International Journal of Peptides, 2015)", "key": {"[1]": {"assay": "in vitro", "settings": "isolated enzyme elastase, pH 8", "experimental": "(§1) Human prolactin releasing peptide (hPRP) was used to show a non-ICK example which contains evenly spaced multiple enzyme cleavage sites. […] To mimic gastric degradation of peptides, 10 μL 100 ng/μL pepsin was mixed with 50 μL 100 ng/μL peptides in 1.5 mL tubes containing 20 μL 1 M glycine (pH2.0) and 20 μL distilled water. To study intestinal degradation of peptides, 10 μL 100 ng/μL trypsin was mixed with 50 μL 100 ng/μL peptides in 1.5 mL tubes containing 10 μL 500 mM Tris-HCl (pH8.0) and 30 μL distilled water; 10 μL 100 ng/μL chymotrypsin was mixed with 50 μL 100 ng/μL peptides in 1.5 mL tubes containing 10 μL 500 mM Tris-HCl (pH8.0), 10 μL 100 mM CaCl2, and 20 μL distilled water; 10 μL 100 ng/μL elastase was mixed with each 50 μL 100 ng/μL peptide in 1.5 mL tube containing 10 μL 500 mM Tris-HCl (pH8.0), 10 μL 100 mM KCl, and 20 μL distilled water. Mixtures of peptides and enzymes were incubated at 37°C for 1–4 hours, and 10 μL aliquots was set aside every 1 hour and placed on ice. 5 μL tricine sample buffer was immediately added to the aliquots and denatured at 100°C for 5 minutes to stop digestion.\n(§2) Denatured samples were separated by SDS-PAGE using SuperSep Ace 15–20% tricine gel (Wako, Osaka, Japan) at 200 V for 1 hour. Coomassie Brilliant Blue staining of the gel was performed with e-Stain 2.0 Protein Staining System using eStain Protein Staining Pad (GenScript, NJ, USA). Detected bands were digitized by an image scanner and quantified with Image Studio Digits (LI-COR Biosciences, NE, USA).\n(§3) Measurements were converted to the rate of degradation compared to the undegraded values. Experiments were repeated in triplicate and results are indicated as means ± SEM. Statistical significance was determined by Tukey-Kramer test and P values of <0.05 were considered significant."}, "[2]": {"target": "α-chymotrypsin (Bos taurus, UniProt P00766)", "assay": "in vitro", "settings": "pH 8", "experimental": "as §1, §2, §3"}, "[3]": {"target": "elastase (Sus scrofa, UniProt P00772)", "sequence (P00772 27-266)": "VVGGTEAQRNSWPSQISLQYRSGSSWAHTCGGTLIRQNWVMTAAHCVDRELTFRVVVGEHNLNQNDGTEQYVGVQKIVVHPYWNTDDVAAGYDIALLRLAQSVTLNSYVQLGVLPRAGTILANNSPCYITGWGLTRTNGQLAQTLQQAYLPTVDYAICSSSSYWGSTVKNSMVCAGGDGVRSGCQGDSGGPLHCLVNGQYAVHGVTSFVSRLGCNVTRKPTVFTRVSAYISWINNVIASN", "assay": "in vitro", "experimental": "as §1, §2, §3"}, "[4]": {"assay": "In vitro ProTx-II degradation in rat blood plasma", "format": "in vitro ADME", "settings": "1 μg/mL in rat (male SD) blood plasma, 37°C, 24 hours, aliquots at 0, 2, 4, 8, 24 hours; LC-MS/MS; mean of n = 3", "experimental": "To observe peptide degradation in vitro, blood was extracted from three 8-week-old male SD rats after anesthesia with isoflurane inhalation and the plasma was separated by centrifugation at 1,850 g for 10 minutes at 4°C. Plasma was stored on ice and used within the day of the experiment. ProTx-II was added to the plasma to make 1 μg/mL mixture and incubated at 37°C for 24 hours, withdrawing 250 μL aliquots at 0, 2, 4, 8, and 24 hours. Samples were kept at −25°C away from light until analysis.\n(§4) For sample preparation, 100 μL plasma was mixed with 20 μL 50% methanol and 200 μL 4% phosphoric acid. Whole sample mixture was added to the Oasis HLB 1 cc/10 mg extraction cartridge (Waters) equilibrated with 1 mL methanol and 1 mL distilled water. The column was washed with 1 mL 5% methanol and eluted with 1 mL methanol. The elute was dried under nitrogen flow and dissolved in 100 μL solvent A/B (30% : 70%, v/v) for LC-MS/MS. 10 μL sample was analyzed by a Waters LC-MS/MS unit; ACQUITY UPLC BEH HILIC, 1.7 μm, 2.1 mm I.D. × 100 mm (Milford, MA) was used at a flow rate of 0.3 mL/min by linear gradient elution (solvent A : solvent B = 30% : 70%, v/v, solvent A: 0.1% TFA, solvent B: acetonitrile) using electrospray ionization for Xevo TQ MS (Waters, MA, USA)."}, "[5]": {"assay": "In vivo ProTx-II clearance from circulation", "settings": "rat", "experimental": "To observe ProTx-II concentration in circulation blood in vivo, three nonfasted male rats were injected with 0.1 mg/mL/kg of ProTx-II from the femoral vein under isoflurane anesthesia. 450 μL blood samples were taken from the tail vein at 0.083 (5 min), 0.25, 0.5, 1, 2, 4, 8, and 24 hours after the injection using Pasteur pipettes coated with heparin sodium. Plasma was obtained by centrifugation at 10,000 g for 3 minutes at 4°C and stored at −25°C protected from light until analysis. Animal experiments were conducted by Nemoto Science Co., Ltd. (Ibaraki, Japan) in accordance with the guideline of the animal experiment ethics committee (authorization number: 14-0024) and under approval of animal experiment ethics committee of AIST (authorization number: 10150125-A-20131029-001).\nas §4"}, "[6]": {"tested_on": "rats", "set-up": "method as in PMID 18728100", "settings": "cited from earlier work"}, "[7]": {"tested_on": "trypsin", "experimental": "as §1, with “Mixtures of peptides and enzymes were incubated at 37°C for 1–4 hours, and 10 μL aliquots was set aside every 1 hour and placed on ice. 5 μL tricine sample buffer was immediately added to the aliquots and denatured at 100°C for 5 minutes to stop digestion.” left out\nDenatured samples were separated by SDS-PAGE using SuperSep Ace 15–20% tricine gel (Wako, Osaka, Japan) at 200 V for 1 hour. […] Detected bands were digitized by an image scanner and quantified with Image Studio Digits (LI-COR Biosciences, NE, USA).\nMeasurements were converted to the rate of degradation compared to the undegraded values. […] Statistical significance was determined by Tukey-Kramer test and P values of <0.05 were considered significant."}}, "note": "Entries after “also recorded” stand apart in the source; their conditions may differ. Like-named read-outs stand apart in the source and are kept apart here. Bridge positions count the residues as written; N and C are the ends. Peptide text beside a SMILES is read from it.", "data": [{"smiles": "CC(C)C[C@@H]1NC(=O)[C@@H](NC(=O)CN)CSSC[C@@H]2NC(=O)[C@@H]3CSSC[C@@H](C(=O)N[C@@H](CC(N)=O)C(=O)N[C@@H](Cc4ccccc4)C(=O)N[C@@H](CO)C(=O)N[C@@H](Cc4ccccc4)C(N)=O)NC(=O)[C@H](CC(C)C)NC(=O)[C@H](CCCCN)NC(=O)[C@H](Cc4ccccc4)NC(=O)[C@H](CC(C)C)NC(=O)[C@H](CCCCN)NC(=O)[C@H](CO)NC(=O)[C@H](CSSC[C@H](NC(=O)[C@H](CCCCN)NC(=O)[C@H](Cc4c[nH]c5ccccc45)NC(=O)[C@H](Cc4c[nH]c5ccccc45)NC(=O)[C@H](Cc4ccccc4)NC(=O)[C@H](CCC(=O)O)NC1=O)C(=O)N[C@@H](CC(N)=O)C(=O)N1CCC[C@H]1C(=O)N[C@@H](CC(N)=O)C(=O)N[C@@H](CC(=O)O)C(=O)N[C@@H](CC(=O)O)C(=O)N[C@@H](CCCCN)C(=O)N3)NC(=O)[C@H](CCCCN)NC(=O)[C@H](CC(C)C)NC(=O)[C@H](CCCCN)NC(=O)[C@@H]1CCCN1C(=O)[C@H](CCCNC(=N)N)NC2=O", "note": "[GsMTx-4] (H-GCLEFWWKCNPNDDKCCRPKLKCSKLFKLCNFSF-NH2; disulfide 2-17, 9-23, 16-30)", "values": [{"measurement": "remaining at 4 h", "setting": "[1]", "result": "> 84", "unit": "%"}, {"measurement": "degradation by chymotrypsin, overall result in words", "setting": "[2]", "result": "not degraded at all"}]}, {"smiles": "CSCC[C@@H]1NC(=O)CNC(=O)[C@H](CCC(=O)O)NC(=O)[C@@H]2CSSC[C@H](NC(=O)[C@@H](N)Cc3ccc(O)cc3)C(=O)N[C@@H](CCC(N)=O)C(=O)N[C@@H](CCCCN)C(=O)N[C@@H](Cc3c[nH]c4ccccc34)C(=O)N[C@@H](CCSC)C(=O)N[C@@H](Cc3c[nH]c4ccccc34)C(=O)N[C@@H]([C@@H](C)O)C(=O)N[C@H]3CSSC[C@H](NC(=O)[C@H](C(C)C)NC1=O)C(=O)N[C@@H](CCCNC(=N)N)C(=O)N[C@@H](CC(C)C)C(=O)N[C@@H](Cc1c[nH]c4ccccc14)C(=O)N[C@H](C(=O)N[C@@H](CCCCN)C(=O)N[C@@H](CCCCN)C(=O)N[C@@H](CCCCN)C(=O)N[C@@H](CC(C)C)C(=O)N[C@@H](Cc1c[nH]c4ccccc14)C(=O)O)CSSC[C@H](NC(=O)[C@H](CCCCN)NC(=O)[C@H](CCCNC(=N)N)NC(=O)[C@H](CCC(=O)O)NC(=O)[C@H](CO)NC(=O)[C@H](CC(=O)O)NC3=O)C(=O)N2", "note": "[ProTx-II]", "values": [{"measurement": "peptide remaining undigested with elastase at 4 hours", "setting": "[3]; elastase, Tris-HCl pH8.0, KCl, 37°C, 4 hours, SDS-PAGE, CBB staining, band quantification, mean of n = 3", "result": "over 84%"}, {"measurement": "remaining at 4 h", "setting": "[2]; isolated enzyme chymotrypsin", "result": 86, "unit": "%"}, {"measurement": "degradation in rat blood plasma in vitro (in words)", "setting": "[4]", "result": "not degraded at all; also recorded: No ProTx-II degradation was observed"}, {"measurement": "level at 8 h", "setting": "[5]; male, plasma, iv, 0.1 mg/mL/kg into the femoral vein, 8 hours after administration, LC-MS/MS, n = 3, read-out: ProTx-II concentration in circulation blood at 8 hours (detection limit)", "result": "< 30", "unit": "ng/mL"}, {"measurement": "time for concentration to drop to the detection limit", "setting": "[5]; 0.1 mg/mL/kg into the femoral vein, detection limit 30.0 ng/mL, LC-MS/MS, n = 3", "result": "≤ 8", "unit": "h"}, {"measurement": "concentration in circulation corresponding to the detection limit of 30 ng/mL", "setting": "[5]; 8 hr, molar conversion of the detection limit", "result": 7.8, "unit": "nM"}, {"measurement": "mortal plasma concentration", "setting": "[6]; 1 mg/kg dosage", "result": 3, "unit": "µM"}, {"measurement": "dosage reported to be lethal in rats", "setting": "[6]", "result": 1, "unit": "mg/kg"}]}, {"smiles": "CC(C)C[C@@H]1NC(=O)[C@H](Cc2c[nH]c3ccccc23)NC(=O)[C@H](Cc2ccc(O)cc2)NC(=O)[C@H](CCCNC(=N)N)NC(=O)[C@@H](NC(=O)[C@@H](N)CCC(=O)O)CSSC[C@@H]2NC(=O)[C@@H]3CSSC[C@@H](C(=O)N[C@H](C(=O)N[C@@H](Cc4c[nH]c5ccccc45)C(=O)N[C@@H](CC(=O)O)C(=O)NCC(=O)N[C@H](C(=O)N[C@@H](Cc4ccccc4)C(=O)N[C@@H](CO)C(=O)O)[C@@H](C)O)C(C)C)NC(=O)[C@H](Cc4c[nH]c5ccccc45)NC(=O)CNC(=O)[C@H](Cc4c[nH]cn4)NC(=O)[C@H](CCCNC(=N)N)NC(=O)[C@H](CCCNC(=N)N)NC(=O)[C@H](CO)NC(=O)[C@H](CSSC[C@H](NC(=O)CNC(=O)CNC1=O)C(=O)N[C@@H](CO)C(=O)N[C@@H](C)C(=O)NCC(=O)N[C@@H](CCC(N)=O)C(=O)N[C@@H]([C@@H](C)O)C(=O)N3)NC(=O)[C@H](C(C)C)NC(=O)[C@H](CC(C)C)NC(=O)[C@H](Cc1c[nH]cn1)NC(=O)[C@H](CCCCN)NC2=O", "note": "[ProTx-I]", "values": [{"measurement": "digestion by trypsin within 1-hour incubation (in words)", "setting": "[7]; pH 8", "result": "almost completely digested"}, {"measurement": "remaining at 4 h", "setting": "[3]; isolated enzyme elastase, pH 8", "result": 22, "unit": "%"}, {"measurement": "degradation by elastase, overall result in words", "setting": "[3]; pH 8", "result": "degraded"}, {"measurement": "degradation by chymotrypsin within 1 hour (in words)", "setting": "[2]", "result": "completely degraded"}]}, {"smiles": "CC[C@H](C)[C@H](NC(=O)CNC(=O)[C@H](CCCNC(=N)N)NC(=O)[C@H](CO)NC(=O)[C@H](C)NC(=O)[C@H](Cc1ccc(O)cc1)NC(=O)[C@H](Cc1c[nH]c2ccccc12)NC(=O)[C@H](C)NC(=O)[C@@H]1CCCN1C(=O)[C@H](CC(N)=O)NC(=O)[C@@H](NC(=O)[C@H](CC(=O)O)NC(=O)[C@@H]1CCCN1C(=O)[C@@H](NC(=O)[C@H](CCCNC(=N)N)NC(=O)[C@@H](NC(=O)[C@H](CCC(=O)O)NC(=O)[C@H](CCSC)NC(=O)[C@H](CO)NC(=O)[C@H](Cc1c[nH]cn1)NC(=O)[C@H](CCCNC(=N)N)NC(=O)[C@H](Cc1c[nH]cn1)NC(=O)[C@@H](NC(=O)[C@H](CCCNC(=N)N)NC(=O)[C@@H](N)CO)[C@@H](C)O)[C@@H](C)CC)[C@@H](C)O)[C@@H](C)CC)C(=O)N[C@@H](CCCNC(=N)N)C(=O)N1CCC[C@H]1C(=O)N[C@H](C(=O)NCC(=O)N[C@@H](CCCNC(=N)N)C(=O)N[C@@H](Cc1ccccc1)C(N)=O)C(C)C", "note": "[hPRP, Human prolactin-releasing peptide]", "values": [{"measurement": "digestion by trypsin within 1-hour incubation (in words)", "setting": "[7]; 10 μL 100 ng/μL trypsin + 50 μL 100 ng/μL peptide, Tris-HCl pH8.0, 37°C, 1 hour, SDS-PAGE, CBB staining, n = 3", "result": "almost completely digested"}, {"measurement": "degradation by elastase, overall result in words", "setting": "[3]; elastase, pH8.0, 37°C, up to 4 hours, SDS-PAGE, CBB staining, mean of n = 3", "result": "eventually digested all"}, {"measurement": "degradation by chymotrypsin within 1 hour (in words)", "setting": "[2]", "result": "completely degraded"}]}]}
